Laboratory results as given in ChEMBL document CHEMBL5252650, “An ATG4B inhibitor blocks autophagy and sensitizes Sorafenib inhibition activities in HCC tumor cells” (Bioorg Med Chem, 2023).
Calls of active or inactive are those of the source. No cut-off for these calls is given here.

Experiments:
[1] = test system: SK-HEP1; experiment: Cytotoxicity against human SK-HEP1 cells assessed as reduction in cell viability incubated for 72 hrs by CellTiter-Glo luminescent assay; type: functional, cell-based; settings: SK-HEP1, 72 h
[2] = test system: Huh-7; experiment: Cytotoxicity against human Huh-7 cells assessed as reduction in cell viability incubated for 72 hrs by CellTiter-Glo luminescent assay; type: functional, cell-based; settings: Huh-7, 72 h
[3] = Inhibition of sorafenib-induced autophagic flux in human Huh-7 cells assessed as fold increase in p62 protein expression at 20 uM incubated for 24 hrs in presence of 5 uM sorafenib by immunoblot analysis relative to control; type: functional
[4] = test system: Huh-7; experiment: Inhibition of autophagy in human Huh-7 cells overexpressing TurboRFP-EGFP-LC3B assessed as increase in yellow dot puncta formation at 10 uM incubated for 24 hrs by immunofluorescence assay; type: functional, cell-based
[5] = test system: Huh-7; experiment: Inhibition of autophagy in human Huh-7 cells assessed as reduction in LC3B-I protein expression at 10 to 20 uM incubated for 24 hrs by immunoblot analysis; type: functional, cell-based; settings: dose 10-20 µM
[6] = Inhibition of sorafenib-induced autophagic flux in human SK-HEP1 cells assessed as fold increase in p62 protein expression at 20 uM incubated for 24 hrs in presence of 5 uM sorafenib by immunoblot analysis relative to control; type: functional
[7] = test system: Huh-7; experiment: Inhibition of sorafenib-induced autophagic flux in human Huh-7 cells overexpressing TurboRFP-EGFP-LC3B assessed as increase in yellow dot puncta formation at 10 uM incubated for 24 hrs in presence of 5 uM sorafenib by immunofluorescence assay; type: functional, cell-based
[8] = test system: Huh-7; experiment: Potentiation of sorafenib-induced antiproliferative activity against human Huh-7 cells assessed as inhibition of cell proliferation at 20 uM incubated for 5 days in presence of sorafenib by CTG assay; type: functional, cell-based; settings: time 5.0 day
[9] = target: T1, Cysteine protease ATG4B (Homo sapiens) (UniProt Q9Y4P1); experiment: Binding affinity to N-terminal His6/SUMO-tagged full length human ATG4B expressed in Escherichia coli BL21 (DE3) cells at 100 uM by CPMG spectroscopy
T1 sequence (whole entry): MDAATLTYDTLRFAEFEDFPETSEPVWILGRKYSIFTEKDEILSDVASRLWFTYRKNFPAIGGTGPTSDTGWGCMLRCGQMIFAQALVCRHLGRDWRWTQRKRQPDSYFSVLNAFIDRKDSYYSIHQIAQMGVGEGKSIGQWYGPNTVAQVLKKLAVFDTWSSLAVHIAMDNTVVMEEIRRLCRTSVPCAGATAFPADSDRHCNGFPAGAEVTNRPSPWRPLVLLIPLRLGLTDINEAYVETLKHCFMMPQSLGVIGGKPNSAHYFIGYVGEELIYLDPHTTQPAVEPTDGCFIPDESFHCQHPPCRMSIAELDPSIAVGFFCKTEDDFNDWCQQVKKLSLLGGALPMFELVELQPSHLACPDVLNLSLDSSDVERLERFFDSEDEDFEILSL

[10] = test system: Huh-7; experiment: Inhibition of autophagy in human Huh-7 cells assessed as fold increase in p62 protein expression at 10 uM incubated for 24 hrs by immunoblot analysis relative to control; type: functional
[11] = test system: SK-HEP1; experiment: Inhibition of autophagy in human SK-HEP1 cells assessed as fold increase in p62 protein expression at 10 uM incubated for 24 hrs by immunoblot analysis relative to control; type: functional
[12] = test system: SK-HEP1; experiment: Inhibition of autophagy in human SK-HEP1 cells assessed as fold increase in LC3B-II protein expression at 10 uM incubated for 24 hrs by immunoblot analysis relative to control; type: functional
[13] = test system: IMR-90; experiment: Cytotoxicity against human IMR-90 cells; type: toxicity, cell-based
[14] = test system: SK-HEP1; experiment: Potentiation of sorafenib-induced antiproliferative activity against human SK-HEP1 cells assessed as inhibition of cell proliferation at 20 uM incubated for 5 days in presence of sorafenib by CTG assay; type: functional, cell-based; settings: time 5.0 day
[15] = test system: SK-HEP1; experiment: Inhibition of colony formation in human SK-HEP1 cells at 10 uM incubated for 14 days in presence of sorafenib by crystal violet staining based analysis; type: functional, cell-based; settings: time 14.0 day
[16] = test system: SK-HEP1; experiment: Inhibition of autophagy in human SK-HEP1 cells assessed as reduction in LC3B-I protein expression at 10 to 20 uM incubated for 24 hrs by immunoblot analysis; type: functional, cell-based; settings: dose 10-20 µM
[17] = Inhibition of sorafenib-induced autophagic flux in human SK-HEP1 cells assessed as fold increase in LC3B-II protein expression at 20 uM incubated for 24 hrs in presence of 10 uM sorafenib by immunoblot analysis relative to control; type: functional
[18] = test system: MRC5; experiment: Cytotoxicity against human MRC5 cells; type: toxicity, cell-based
[19] = test system: Huh-7; experiment: Inhibition of autophagy in human Huh-7 cells assessed as fold increase in LC3B-II protein expression at 10 uM incubated for 24 hrs by immunoblot analysis relative to control; type: functional
[20] = test system: Huh-7; experiment: Inhibition of autophagy in human Huh-7 cells assessed as fold increase in LC3B-II protein expression at 20 uM incubated for 24 hrs by immunoblot analysis relative to control; type: functional
[21] = Inhibition of sorafenib-induced autophagic flux in human Huh-7 cells assessed as fold increase in LC3B-II protein expression at 20 uM incubated for 24 hrs in presence of 10 uM sorafenib by immunoblot analysis relative to control; type: functional
[22] = target: T1, Cysteine protease ATG4B (Homo sapiens); experiment: Inhibition of N-terminal His6/SUMO-tagged full length human ATG4B expressed in Escherichia coli BL21 (DE3) cells assessed as reduction in substrate cleavage using His-LC3B-GST as substrate preincubated with enzyme for 1 hr followed by substrate addition for 30 mins by gel electrophoresis analysis; settings: dose 3.125-50 µM, time 1.5 hrs
[23] = test system: SK-HEP1; experiment: Inhibition of autophagy in human SK-HEP1 cells assessed as fold increase in LC3B-II protein expression at 20 uM incubated for 24 hrs by immunoblot analysis relative to control; type: functional
[24] = target: T2, Cysteine protease ATG4B (Homo sapiens, UniProt Q9Y4P1); experiment: (§1) Inhibition of N-terminal His6/SUMO-tagged full length human ATG4B expressed in Escherichia coli BL21 (DE3) cells using His-LC3B-GST as substrate preincubated with enzyme for 1 hr followed by substrate addition for 1 hr by HTRF assay
T2 sequence (Q9Y4P1 whole entry): T1 sequence (whole entry)

[25] = target: T1, Cysteine protease ATG4B (Homo sapiens); experiment: as §1; settings: time 2.0 hrs
[26] = test system: SK-HEP1; experiment: Inhibition of autophagy in human SK-HEP1 cells assessed as fold increase in p62 protein expression at 20 uM incubated for 24 hrs by immunoblot analysis relative to control; type: functional
[27] = target: T2, Cysteine protease ATG4B; experiment: Binding affinity to N-terminal His6/SUMO-tagged full length human ATG4B expressed in Escherichia coli BL21 (DE3) cells by SPR assay
[28] = Inhibition of sorafenib-induced autophagic flux in human Huh-7 cells assessed as fold increase in LC3B-II protein expression at 20 uM incubated for 24 hrs in presence of 5 uM sorafenib by immunoblot analysis relative to control; type: functional
[29] = Inhibition of sorafenib-induced autophagic flux in human Huh-7 cells assessed as fold increase in p62 protein expression at 20 uM incubated for 24 hrs in presence of 10 uM sorafenib by immunoblot analysis relative to control; type: functional
[30] = test system: Huh-7; experiment: Inhibition of autophagy in human Huh-7 cells overexpressing TurboRFP-EGFP-LC3B assessed as increase in number of red dots at 10 uM incubated for 24 hrs by immunofluorescence assay; type: functional, cell-based
[31] = Inhibition of sorafenib-induced autophagic flux in human SK-HEP1 cells assessed as fold increase in p62 protein expression at 20 uM incubated for 24 hrs in presence of 10 uM sorafenib by immunoblot analysis relative to control; type: functional
[32] = test system: Huh-7; experiment: Inhibition of colony formation in human Huh-7 cells at 10 uM incubated for 14 days in presence of sorafenib by crystal violet staining based analysis; type: functional, cell-based; settings: time 14.0 day
[33] = test system: Huh-7; experiment: Inhibition of autophagy in human Huh-7 cells assessed as fold increase in p62 protein expression at 20 uM incubated for 24 hrs by immunoblot analysis relative to control; type: functional
[34] = Inhibition of sorafenib-induced autophagic flux in human SK-HEP1 cells assessed as fold increase in LC3B-II protein expression at 20 uM incubated for 24 hrs in presence of 5 uM sorafenib by immunoblot analysis relative to control; type: functional

S=C(Nc1ccc2nc(-c3ccco3)c(-c3ccco3)nc2c1)N1CCCCCC1
IC50 [1]: 23.6 µM
IC50 [2]: 25.3 µM
fold change (FC) [3]: 1.1
inhibition [4]: Active
inhibition [5]: Active
fold change (FC) [6]: 0.85
inhibition [7]: Active
Activity [8]: Active
Activity [9]: Active
fold change (FC) [10]: 2.3
fold change (FC) [11]: 2.1
fold change (FC) [12]: 1.46
Activity [13]: Non-Toxic
Activity [14]: Active
inhibition [15]: Active
inhibition [16]: Active
fold change (FC) [17]: 0.66
Activity [18]: Non-Toxic
fold change (FC) [19]: 1.5
fold change (FC) [20]: 1.6
fold change (FC) [21]: 0.64
inhibition [22]: Dose-Dependent Effect
fold change (FC) [23]: 1.6
IC50 [24]: 3.08 µM
inhibition [25]: Dose-Dependent Effect
fold change (FC) [26]: 2.4
Kd [27]: 14.3 µM
fold change (FC) [28]: 0.76
fold change (FC) [29]: 0.84
inhibition [30]: Active
fold change (FC) [31]: 0.82
inhibition [32]: Active
fold change (FC) [33]: 2.8
fold change (FC) [34]: 0.82
